Experimental data published in the NIST ThermoML archive (doi:10.1016/j.tca.2019.01.031).
± gives the expanded uncertainty stated by the source.

Legend:
[1] = xn = mol fraction of the nth substance listed; conditions: 298 K, 101.33 kPa, Crystal, X-ray diffraction
[2] = molar heat capacity at constant pressure; xn = mol fraction of the nth substance listed; conditions: 101.33 kPa, Crystal, DSC
[3] = 298 K; 101.33 kPa; Crystal; X-ray diffraction
[4] = molar heat capacity at constant pressure; conditions: 101.33 kPa, Crystal, DSC

## O=P([O-])([O-])[O-].O=P([O-])([O-])[O-].[Sr+2].[Th+4] [strontium thorium(IV) phosphate] + O=P([O-])([O-])[O-].[La+3]
[1]; x2 = 0
  mass density: 5619 ± 9 kg/m3
[1]; x2 = 0.333
  mass density: 5505 ± 12 kg/m3
[1]; x2 = 0.571
  mass density: 5395 ± 13 kg/m3
[1]; x2 = 0.75
  mass density: 5295 ± 15 kg/m3
[1]; x2 = 0.889
  mass density: 5203 ± 20 kg/m3
[2]; 298 K, x2 = 0
  molar heat capacity at constant pressure: 177.6 ± 21 J/K/mol
[2]; 298 K, x2 = 0.333
  molar heat capacity at constant pressure: 172.2 ± 18 J/K/mol
[2]; 298 K, x2 = 0.571
  molar heat capacity at constant pressure: 148.6 ± 18 J/K/mol
[2]; 298 K, x2 = 0.75
  molar heat capacity at constant pressure: 130.3 ± 14 J/K/mol
[2]; 298 K, x2 = 0.889
  molar heat capacity at constant pressure: 117 ± 12 J/K/mol
[2]; 300 K, x2 = 0
  molar heat capacity at constant pressure: 178.6 ± 17 J/K/mol
[2]; 300 K, x2 = 0.333
  molar heat capacity at constant pressure: 172.9 ± 15 J/K/mol
[2]; 300 K, x2 = 0.571
  molar heat capacity at constant pressure: 149.2 ± 13 J/K/mol
[2]; 300 K, x2 = 0.75
  molar heat capacity at constant pressure: 130.6 ± 11 J/K/mol
[2]; 300 K, x2 = 0.889
  molar heat capacity at constant pressure: 117.4 ± 10 J/K/mol
[2]; 350 K, x2 = 0
  molar heat capacity at constant pressure: 197.2 ± 18 J/K/mol
[2]; 350 K, x2 = 0.333
  molar heat capacity at constant pressure: 186.9 ± 18 J/K/mol
[2]; 350 K, x2 = 0.571
  molar heat capacity at constant pressure: 158.5 ± 18 J/K/mol
[2]; 350 K, x2 = 0.75
  molar heat capacity at constant pressure: 139.5 ± 14 J/K/mol
[2]; 350 K, x2 = 0.889
  molar heat capacity at constant pressure: 127.5 ± 10 J/K/mol
[2]; 400 K, x2 = 0
  molar heat capacity at constant pressure: 210.2 ± 21 J/K/mol
[2]; 400 K, x2 = 0.333
  molar heat capacity at constant pressure: 197.9 ± 18 J/K/mol
[2]; 400 K, x2 = 0.571
  molar heat capacity at constant pressure: 166.3 ± 16 J/K/mol
[2]; 400 K, x2 = 0.75
  molar heat capacity at constant pressure: 146.8 ± 14 J/K/mol
[2]; 400 K, x2 = 0.889
  molar heat capacity at constant pressure: 135.2 ± 8.5 J/K/mol
[2]; 450 K, x2 = 0
  molar heat capacity at constant pressure: 220 ± 22 J/K/mol
[2]; 450 K, x2 = 0.333
  molar heat capacity at constant pressure: 207.2 ± 18 J/K/mol
[2]; 450 K, x2 = 0.571
  molar heat capacity at constant pressure: 173.1 ± 16 J/K/mol
[2]; 450 K, x2 = 0.75
  molar heat capacity at constant pressure: 153.1 ± 12 J/K/mol
[2]; 450 K, x2 = 0.889
  molar heat capacity at constant pressure: 141.5 ± 12 J/K/mol
[2]; 500 K, x2 = 0
  molar heat capacity at constant pressure: 227.8 ± 18 J/K/mol
[2]; 500 K, x2 = 0.333
  molar heat capacity at constant pressure: 215.5 ± 16 J/K/mol
[2]; 500 K, x2 = 0.571
  molar heat capacity at constant pressure: 179.1 ± 13 J/K/mol
[2]; 500 K, x2 = 0.75
  molar heat capacity at constant pressure: 158.8 ± 14 J/K/mol
[2]; 500 K, x2 = 0.889
  molar heat capacity at constant pressure: 147.1 ± 13 J/K/mol
[2]; 550 K, x2 = 0
  molar heat capacity at constant pressure: 234.2 ± 18 J/K/mol
[2]; 550 K, x2 = 0.333
  molar heat capacity at constant pressure: 223.2 ± 16 J/K/mol
[2]; 550 K, x2 = 0.571
  molar heat capacity at constant pressure: 184.8 ± 16 J/K/mol
[2]; 550 K, x2 = 0.75
  molar heat capacity at constant pressure: 164 ± 12 J/K/mol
[2]; 550 K, x2 = 0.889
  molar heat capacity at constant pressure: 152.1 ± 15 J/K/mol
[2]; 600 K, x2 = 0
  molar heat capacity at constant pressure: 239.6 ± 15 J/K/mol
[2]; 600 K, x2 = 0.333
  molar heat capacity at constant pressure: 230.4 ± 19 J/K/mol
[2]; 600 K, x2 = 0.571
  molar heat capacity at constant pressure: 190.3 ± 19 J/K/mol
[2]; 600 K, x2 = 0.75
  molar heat capacity at constant pressure: 169.1 ± 14 J/K/mol
[2]; 600 K, x2 = 0.889
  molar heat capacity at constant pressure: 156.8 ± 11 J/K/mol
[2]; 650 K, x2 = 0
  molar heat capacity at constant pressure: 244.4 ± 18 J/K/mol
[2]; 650 K, x2 = 0.333
  molar heat capacity at constant pressure: 237.2 ± 16 J/K/mol
[2]; 650 K, x2 = 0.571
  molar heat capacity at constant pressure: 195.5 ± 16 J/K/mol
[2]; 650 K, x2 = 0.75
  molar heat capacity at constant pressure: 173.9 ± 12 J/K/mol
[2]; 650 K, x2 = 0.889
  molar heat capacity at constant pressure: 161.1 ± 11 J/K/mol
[2]; 700 K, x2 = 0
  molar heat capacity at constant pressure: 248.8 ± 18 J/K/mol
[2]; 700 K, x2 = 0.333
  molar heat capacity at constant pressure: 243.9 ± 19 J/K/mol
[2]; 700 K, x2 = 0.571
  molar heat capacity at constant pressure: 200.6 ± 14 J/K/mol
[2]; 700 K, x2 = 0.75
  molar heat capacity at constant pressure: 178.6 ± 14 J/K/mol
[2]; 700 K, x2 = 0.889
  molar heat capacity at constant pressure: 165.3 ± 13 J/K/mol
[2]; 750 K, x2 = 0
  molar heat capacity at constant pressure: 252.8 ± 22 J/K/mol
[2]; 750 K, x2 = 0.333
  molar heat capacity at constant pressure: 250.2 ± 19 J/K/mol
[2]; 750 K, x2 = 0.571
  molar heat capacity at constant pressure: 205.6 ± 14 J/K/mol
[2]; 750 K, x2 = 0.75
  molar heat capacity at constant pressure: 183.3 ± 12 J/K/mol
[2]; 750 K, x2 = 0.889
  molar heat capacity at constant pressure: 169.3 ± 11 J/K/mol
[2]; 800 K, x2 = 0
  molar heat capacity at constant pressure: 256.6 ± 22 J/K/mol
[2]; 800 K, x2 = 0.333
  molar heat capacity at constant pressure: 256.6 ± 22 J/K/mol
[2]; 800 K, x2 = 0.571
  molar heat capacity at constant pressure: 210.6 ± 16 J/K/mol
[2]; 800 K, x2 = 0.75
  molar heat capacity at constant pressure: 187.8 ± 14 J/K/mol
[2]; 800 K, x2 = 0.889
  molar heat capacity at constant pressure: 173.2 ± 13 J/K/mol

## O=P([O-])([O-])[O-].O=P([O-])([O-])[O-].[Sr+2].[Th+4] [strontium thorium(IV) phosphate]
[3]
  mass density: 5619 ± 10 kg/m3
[4]; 298 K
  molar heat capacity at constant pressure: 177.6 ± 21 J/K/mol
[4]; 300 K
  molar heat capacity at constant pressure: 178.6 ± 17 J/K/mol
[4]; 350 K
  molar heat capacity at constant pressure: 197.2 ± 17 J/K/mol
[4]; 400 K
  molar heat capacity at constant pressure: 210.2 ± 21 J/K/mol
[4]; 450 K
  molar heat capacity at constant pressure: 220 ± 21 J/K/mol
[4]; 500 K
  molar heat capacity at constant pressure: 227.8 ± 18 J/K/mol
[4]; 550 K
  molar heat capacity at constant pressure: 234.2 ± 18 J/K/mol
[4]; 600 K
  molar heat capacity at constant pressure: 239.6 ± 15 J/K/mol
[4]; 650 K
  molar heat capacity at constant pressure: 244.4 ± 18 J/K/mol
[4]; 700 K
  molar heat capacity at constant pressure: 248.8 ± 18 J/K/mol
[4]; 750 K
  molar heat capacity at constant pressure: 252.8 ± 22 J/K/mol
[4]; 800 K
  molar heat capacity at constant pressure: 256.6 ± 22 J/K/mol
